{"source": "patent US5795861A", "about": "“Methods for regulating gastrointestinal motility” (Amylin Pharmaceuticals Inc., priority 1995, dated 1998)", "key": {"corpulent LA/N rats": {"system": "corpulent LA/N rats", "experiment": "uptake of ingested labelled glucose load after amylin antagonist preinjection", "format": "in vivo, rat", "settings": "for acceleration of appearance of glucose-derived tritium in the plasma: 3 μg s.c. 3 minutes before gavage", "experimental": "Uptake of an ingested labelled glucose load was measured in 11 conscious 24-hr fasted corpulent (500-600 g) LA/N rats on 2 occasions, 14 days apart."}, "Mongrel dogs": {"system": "Mongrel dogs", "experiment": "oral glucose tolerance test in dogs during amylin ± AC-0253 infusion", "format": "in vivo", "settings": "for effects on plasma lactate: oral glucose load", "experimental": "Mongrel dogs (9 males, 12-17 kg wt. range) were used for this study. All animals were fasted overnight prior to each study. Each animal served as its own control for all protocols. Animals were equilibrated for 30-60 minutes prior to the start of each protocol.\n25% glucose (1 gm/kg) was administered by mouth at t=0 minutes. […] Samples for insulin, glucose and lactate were obtained at 15 minute intervals from t=-45 to t=180 minutes."}, "fed rats": {"system": "fed rats", "settings": "preinfusion of antagonist; cited from earlier work"}, "[1]": {"system": "non-diabetic Harlan Sprague Dawley rats", "experiment": "gastric emptying of Phenol Red methylcellulose gel, normal rats", "format": "in vivo, rat", "settings": "for ED50, suppression of gastric emptying: normal rats fasted 20 hours, s.c. 5 min before gavage", "description": "(§1) Twenty minutes after gavage, rats were anesthetized using 5% halothane, the stomach exposed and clamped at the pyloric and lower esophageal sphincters using artery forceps, removed and opened into an alkaline solution which was made up to a fixed volume. Stomach content was derived from the intensity of the phenol red in the alkaline solution, measured by absorbance at a wavelength of 560 nm. In most experiments, the stomach was clear. In other experiments, particulate gastric contents were centrifuged to clear the solution for absorbance measurements. Where the diluted gastric contents remained turbid, the spectroscopic absorbance due to Phenol Red was derived as the difference between that present in alkaline vs acidified diluent. In separate experiments on 7 rats, the stomach and small intestine were both excised and opened into an alkaline solution. The quantity of phenol red that could be recovered from the upper gastrointestinal tract within 20 minutes of gavage was 89±4%. To account for a maximal dye recovery of less than 100%, stomach contents remaining after 20 min were expressed as a fraction of the gastric contents recovered from control rats sacrificed immediately after gavage in the same experiment.\nSince ED50 is log-normally distributed, it is expressed i standard error of the logarithm. Pairwise comparisons were performed using one-way analysis of variance and the Student-Newman-Keuls multiple comparisons test (Instat v2.0, GraphPad Software, San Diego) using P<0.05 as the level of significance."}, "diabetic BB rats": {"system": "diabetic BB rats", "experiment": "gastric emptying of Phenol Red methylcellulose gel, diabetic rats", "format": "in vivo, rat", "settings": "for ED50 for suppression of gastric emptying: diabetic rats fasted 6 hours, s.c. 5 min before gavage", "experimental": "When BB rats were confirmed as being diabetic by glycosuria on at least 2 days, they were treated with daily s.c. injections of ultralente recombinant human insulin (Humulin-U, Eli Lilly, Ind.). Insulin therapy was aimed at maintaining glucose but minimizing ketones in the urine, in order to avoid hypoglycemic deaths. In fact, glycosuria was present in 88% of measurements and ketonuria in 52%. The average duration of diabetes was 53±5 days, and daily insulin requirements were 4.7±0.3 units. All animals were housed at 22.7±0.8 C in a 12:12 hour light:dark cycle (experiments being performed during the light cycle) and were fed and watered ad libitum (Diet LM-485, Teklad, Madison, Wis.).\nThe determination of gastric emptying by the method described below has usually been performed after a fast of ~20 hours to ensure that the stomach contained no chyme that would interfere with spectrophotometric absorbance measurements. However, diabetic rats treated with Ultralente insulin could not be fasted for 20 hours. […] Such animals were therefore. fasted for only 6 hours before measurement of gastric emptying. Non-diabetic rats were deprived of food for either 6 or 20 hours prior to experimentation. We have noted that even non-diabetic BB rats have elevated glycated hemoglobin concentrations, possibly indicating subclinical insulitis. Both non-diabetic Harlan Sprague Dawley rats and non-diabetic BB rats animals were therefore used in comparisons with diabetic rats. Thus there were 5 treatment groups:\nas §1, with “experiment. […]” for “experiment.”"}, "[2]": {"experiment": "plasma amylin concentration after subcutaneous rat amylin (immuno-enzymometric assay)", "format": "in vivo", "settings": "sc", "experimental": "The plasma from 250 μL samples collected at 10 min intervals was separated and frozen at -20° C. for analysis by a 2-site immuno-enzymometric assay developed in-house.\nTo perform the immunoassay, black microtiter plates (Dynatech, Chantilly, Va.) were coated with the antibody F024-4.4 [Phelps J L, Blase E, Koda J E, unpublished] by overnight incubation at 4° C. with 20 ug antibody per mL in 50 mM carbonate at pH 9.6. Plates were washed with 0.05M Tris/0.15M sodium chloride/0.02% sodium azide/0.1% Tween 20 (TBS/Tween), and blocked with 1.0% nonfat dry milk powder in the same carbonate buffer for one hour at room temperature. Samples were thawed on ice, and diluted in 4% BSA/200mg/dl bovine cholesterol supertrate (Miles Pentex reagents, Miles Laboratories, Kankakee Ill.) if necessary. Samples or standards were added to the coated and blocked plates and incubated for one hour at room temperature. After washing, the F025-27 detection antibody conjugated to alkaline phosphatase was added. Antibody-enzyme coupling was performed using the maleimide alkaline phosphatase conjugation kit from Pierce Immunochemical Co (Rockford Ill.). The conjugate was incubated for three hours at room temperature, after which plates were washed thoroughly with Tris buffered saline. Bound enzyme was detected by incubation of the plates with the fluorescent substrate 4-methylumbelliferyl phosphate at 50 ug/ml in 1M diethanolamine/0.5 mM MgCl, pH 9.8 for 40 minutes at room temperature. The fluorescent signal was measured with a Dynatech Microfluor plate reader, and data analyzed on Multicalc software (Wallac, Gaithersburg Md.). […] When performed in this manner, the assay has a minimum detectable concentration of 2 pM."}, "anesthetized rats [3]": {"system": "anesthetized rats", "experiment": "glucose bolus into stomach or duodenum during amylin infusion", "format": "in vivo", "settings": "rat amylin 0.35 nm/kg/min infusion", "description": "(§2) After one hour of amylin infusion, a bolus of glucose (lg/kg) was infused either into the stomach or the duodenum through a tube inserted through the esophagus. Because-the studies involved anesthetized rather than conscious rats, they are not considered in analyzing gastric motility, e.g., rate of emptying of stomach contents into the duodenum. However, the studies indicate that absorption of glucose from the duodenum into the blood was not delayed by amylin. […] In anesthetized rats, a segment of small bowel, still connected to the animal via its blood supply, was exteriorized and cannulae inserted so that the small bowel could be perfused with glucosed solutions of controlled composition. The animals were cannulated also via an artery (for blood sampling) and via a vein (for infusion of amylin, insulin and glucose). The lumen was perfused with a tritium-labelled glucose solution. The passage of glucose from the lumen of the gut into the rat was measured by the appearance of the tritium label in the plasma. The supposition that such appearance of tritium in the plasma was indeed measuring glucose uptake from the gut was tested by administration of the glucose transport blocker, phloridzin. […]"}, "anesthetized rats [4]": {"system": "anesthetized rats", "experiment": "perfused exteriorized small bowel, passage of tritium-labelled glucose into plasma", "format": "in vivo, rat", "settings": "plasma glucose clamped", "description": "as §2"}, "intact rats": {"system": "intact rats", "settings": "given subcutaneously, no disturbance of blood pressure"}, "[5]": {"system": "rats, rabbits, humans with Paget's disease", "settings": "cited from earlier work"}, "[6]": {"system": "motility of the gastro-intestinal tract", "settings": "0.2 to 2 mgs intravenously; cited from earlier work"}}, "note": "No end group written: not given here."}
{"molecule": "acetyl-^10 Asn^32 Tyr^8-32 salmon calcitonin (Ac-VLNKLSQELHKLQTYPRTNTGSGTY; ends and bridges not checked) [AC-0187]", "values": [{"measurement": "plasma glucose 60 minutes after glucose gavage", "setting": "corpulent LA/N rats; 3 μg s.c.", "value": "6.89 ± 0.28", "unit": "mM"}, {"measurement": "acceleration of appearance of glucose-derived tritium in the plasma", "setting": "corpulent LA/N rats; 15 minutes post-gavage", "value": 48, "unit": "%"}, {"measurement": "acceleration of appearance of glucose-derived tritium in the plasma", "setting": "corpulent LA/N rats; 30 minutes post-gavage", "value": 45, "unit": "%"}, {"measurement": "plasma glucose 15 minutes after gavage", "setting": "corpulent LA/N rats; 3 μg s.c., gavage with 0.5 g glucose", "value": "8.33 ± 0.28", "unit": "mM"}, {"measurement": "plasma glucose before gavage", "setting": "corpulent LA/N rats; 3 μg s.c., starting value", "value": "5.89 ± 0.17", "unit": "mM"}]}
{"molecule": "acetyl-^11,18 Arg, ^30 Arg, ^32 Tyr-^9-32 calcitonin (salmon) [AC-0253]", "values": [{"measurement": "changes in plasma glucose, antagonist alone", "setting": "Mongrel dogs; AC-0253 alone", "value": "has no effect"}, {"measurement": "reversal of amylin-induced changes in plasma glucose", "setting": "Mongrel dogs; AC-0253 up to 1500 pmol/kg/min with amylin 50 pmol/kg/min", "value": "does not completely reverse the effects of amylin"}, {"measurement": "effects on plasma lactate", "setting": "Mongrel dogs", "value": "unremarkable"}]}
{"molecule": "^8-37 hCGRP: demonstrated amylin blocker in vitro and in vivo; also an effective CGRP antagonist (VTHRLAGLLSRSGGVVKNFVPTNVGSKAF)", "values": [{"measurement": "glucose concentration following arginine infusion", "setting": "fed rats", "value": "subsequent fall in glucose concentration to well below the basal level"}, {"measurement": "insulin concentration 30 minutes following the arginine infusion vs normal controls", "setting": "fed rats", "value": "almost twice as high"}]}
{"molecule": "CC(C)C[C@H](NC(=O)[C@H](CC(N)=O)NC(=O)[C@H](CC(N)=O)NC(=O)[C@H](CO)NC(=O)[C@H](CO)NC(=O)[C@H](CCCNC(=N)N)NC(=O)[C@@H](NC(=O)[C@H](CC(C)C)NC(=O)[C@H](Cc1ccccc1)NC(=O)[C@H](CC(N)=O)NC(=O)[C@H](C)NC(=O)[C@H](CC(C)C)NC(=O)[C@H](CCCNC(=N)N)NC(=O)[C@H](CCC(N)=O)NC(=O)[C@@H](NC(=O)[C@H](C)NC(=O)[C@@H]1CSSC[C@H](NC(=O)[C@@H](N)CCCCN)C(=O)N[C@@H](CC(N)=O)C(=O)N[C@@H]([C@@H](C)O)C(=O)N[C@@H](C)C(=O)N[C@@H]([C@@H](C)O)C(=O)N1)[C@@H](C)O)C(C)C)C(=O)NCC(=O)N1CCC[C@H]1C(=O)N[C@H](C(=O)N[C@@H](CC(C)C)C(=O)N1CCC[C@H]1C(=O)N1CCC[C@H]1C(=O)N[C@H](C(=O)N[C@@H](CC(N)=O)C(=O)N[C@H](C(=O)NCC(=O)N[C@@H](CO)C(=O)N[C@@H](CC(N)=O)C(=O)N[C@H](C(=O)N[C@@H](Cc1ccc(O)cc1)C(N)=O)[C@@H](C)O)C(C)C)[C@@H](C)O)C(C)C", "note": "[amylin]", "values": [{"measurement": "rate of rise and peak of plasma glucose after oral glucose load", "setting": "Mongrel dogs; amylin infusion 50, 100 and 300 pmol/kg/min, 25% glucose 1 gm/kg by mouth", "value": "reduced both the rate of rise in plasma glucose as well as the peak plasma glucose"}, {"measurement": "effects on plasma lactate", "setting": "Mongrel dogs", "value": "unremarkable"}, {"measurement": "ED50 of inhibition of gastric emptying (summary statement)", "setting": "[1]; normal rats", "value": "~ 1 μg"}, {"measurement": "ED50, suppression of gastric emptying", "setting": "[1]", "value": "0.60 nmole amylin/kg body weight"}, {"measurement": "ED50, suppression of gastric emptying", "setting": "[1]; ±0.19 log units", "value": 0.43, "unit": "µg"}, {"measurement": "dose that would restore gastric emptying to the rate of normal rats not administered amylin", "setting": "diabetic BB rats; diabetic rat, estimated from fitted curves of FIG. 14", "value": "~ 2 μg"}, {"measurement": "ED50 of inhibition of gastric emptying (summary statement)", "setting": "diabetic BB rats; diabetic rats", "value": "~ 1 μg"}, {"measurement": "ED50 for suppression of gastric emptying", "setting": "diabetic BB rats", "value": 2.3, "unit": "nmol/kg"}, {"measurement": "ED50 for suppression of gastric emptying", "setting": "diabetic BB rats; ±0.18 log units", "value": 2.2, "unit": "µg"}, {"measurement": "level at time molar at 10 min", "setting": "[2]; 1 ug, 1 μg s.c.", "value": "0.066 ± 0.01", "unit": "nM"}, {"measurement": "level at time molar at 10 min", "setting": "[2]; 10 ug, 10 μg s.c. bolus", "value": "0.347 ± 0.043", "unit": "nM"}, {"measurement": "level at time molar at 20 min", "setting": "[2]; 10 ug, 10 μg s.c. bolus, 20 min", "value": "0.301 ± 0.057", "unit": "nM"}, {"measurement": "absorption of glucose from the duodenum into the blood", "setting": "anesthetized rats [3]", "value": "not delayed"}, {"measurement": "passage of tritium-labelled glucose from the gut lumen into the plasma", "setting": "anesthetized rats [4]", "value": "had no effect"}, {"measurement": "plasma renin activity", "setting": "intact rats", "value": "markedly increases"}, {"measurement": "lowering of plasma calcium", "setting": "[5]", "value": "up to 20%"}]}
{"molecule": "O=C(CCc1ccc(O)cc1)c1c(O)cc(O)cc1O[C@@H]1O[C@H](CO)[C@@H](O)[C@H](O)[C@H]1O", "note": "[Phloridzin, reference compound]", "values": [{"measurement": "passage of tritium-labelled glucose from the gut lumen into the plasma", "setting": "anesthetized rats [4]", "value": "largely prevented the transit of label from the gut lumen into the plasma"}]}
{"molecule": "glucagon: polypeptide hormone produced by the alpha cells of the pancreatic islets; administered as glucagon hydrochloride", "values": [{"measurement": "onset of effect", "setting": "[6]", "value": "within one minute"}]}
